Where “and” joins values, the source holds several entries; their conditions need not be identical. Equal values may be shown once.
Assays:
[1] = biological target: EGFR-T790M (Homo sapiens, UniProt P00533, T790M); assay: Mass spectrometry analysis of covalent bond formation; assay type: binding; parameters: made in house; host or cells: Sf9 insect cells (BacMagic system); conditions: EGFR-T790M incubated with inhibitor on ice for 1 h
Description: captured and quantified using a FUJI LAS3000 system with Science Lab 2001 ImageGauge 4.0 software (Fujifilm Medial Systems, Stamford CT, USA).
Rabbit antibodies specific for phospho-EGFR (Tyr1045), EGFR, Akt, phospho-Akt (Ser473), p42/44 mitogen-activated protein kinase (MAPK), phospho-p44/42 MAPK (Thr202/Tyr204), S6 ribosomal protein, phospho-S6 ribosomal protein (Ser235/236), mouse anti-β-actin antibody as well as HRP-conjugated anti-rabbit and anti-mouse secondary antibodies were purchased from Cell Signaling (Frankfurt, Germany; Beverly, MA).
Mass spectrometry experiments.
We used the drug-resistant mutant EGFR-T790M variant for MS experiments. We incubated a […]
glycerol, 1 mM TCEP, pH 8) on ice for 1 h. We analyzed the aliquots by ESI-MS using an Thermo Fisher Scientific Dionex UltiMate 3000 HPLC system connected to a Thermo Fisher Scientific Velos Pro (2d ion trap). Therefore, 5 μL of sample was injected and separated using a Vydac 214TP C4 5 μm column (150 mm x 2.1 mm) starting at 20% of solvent B for 5 minutes followed by a gradient up to 90% of solvent B over 14 min with a flow rate of 210 μL/min with 0.1% TFA in water as solvent A and 0.1% TFA in MeCN as solvent B. A mass range of 700 to 2000 m/z was scanned and raw data was deconvoluted and analyzed with MagTran software (Z.Q. Zhang, A.G. […]

[2] = Plasma stability, human; assay type: in vitro ADME; conditions: 5 µM, 1 h, 37 °C
[3] = Caco-2 assay; assay type: in vitro ADME; conditions: human
Method: For Caco-2 cell assay, a 10 mM DMSO stock of the compound was diluted to a final concentration of 5 μM in HBSS buffer pH 7.4 and incubated for 2 hours at 37 °C and 5% CO2 on a monolayer of Caco-2 cells (ATCC) that had been grown on a transwell membrane (Millipore, Schwalbach, Germany) for 21 days. The compound concentration was measured in the receiver as well as the donor well. Apparent permeability (Papp) from either the apical to basolateral direction or vice versa […]
is the donor drug concentration at t = 0, and dQ/dt is the amount of drug transported within the given time period of 2 hours. […]

[4] = biological target: ABL1-Y253F (Homo sapiens, UniProt P00519, Y253F); assay: SelectScreen kinase profiling, ABL1-Y253F; assay type: biochemical; conditions: mean ± SD of one measurement in duplicates
Method: (§1) Kinase profiling of compound 17a at a concentration of 1 µM generated with the SelectScreen® Profiling Service from Life Technologies.
(§2) Figure S2. Kinase profiling of compound 17a, Illustration as waterfall plot. 9 Kinases harboring a Cysteine isostructural to Cys797 in EGFR are highlighted
(§3) Kinase % inhibition Kinase % inhibition […]
(§4) aValues are the mean ± SD of one measurement in duplicates; bKinases harboring a Cysteine isostructural to Cys797 […]
(§5) (1 picture or pasted object on this page, not shown here)

[5] = biological target: ITK (Homo sapiens, UniProt Q08881); assay: SelectScreen kinase profiling, ITK; assay type: biochemical; conditions: mean ± SD of one measurement in duplicates
ITK, sequence (Q08881 whole entry): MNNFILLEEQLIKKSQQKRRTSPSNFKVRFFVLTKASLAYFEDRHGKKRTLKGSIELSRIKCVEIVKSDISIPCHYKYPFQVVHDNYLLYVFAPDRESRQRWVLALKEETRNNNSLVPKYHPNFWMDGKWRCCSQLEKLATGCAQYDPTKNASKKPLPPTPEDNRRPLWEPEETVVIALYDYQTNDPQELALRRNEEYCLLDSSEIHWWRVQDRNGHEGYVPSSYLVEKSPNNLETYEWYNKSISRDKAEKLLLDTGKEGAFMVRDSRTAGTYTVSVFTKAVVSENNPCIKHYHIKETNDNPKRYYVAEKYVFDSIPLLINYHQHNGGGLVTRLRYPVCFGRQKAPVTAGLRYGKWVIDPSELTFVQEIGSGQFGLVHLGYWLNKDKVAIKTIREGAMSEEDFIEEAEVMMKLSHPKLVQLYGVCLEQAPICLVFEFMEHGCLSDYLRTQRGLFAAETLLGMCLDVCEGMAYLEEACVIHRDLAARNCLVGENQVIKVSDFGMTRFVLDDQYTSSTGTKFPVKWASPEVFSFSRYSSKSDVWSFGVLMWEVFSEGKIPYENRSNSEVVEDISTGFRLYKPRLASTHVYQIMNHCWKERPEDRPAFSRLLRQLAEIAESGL
Method: as §1, §2, §3, §4, §5

[6] = biological target: ACVR1B (Homo sapiens, UniProt P36896); assay: SelectScreen kinase profiling, ACVR1B; assay type: biochemical; conditions: mean ± SD of one measurement in duplicates
ACVR1B, sequence (P36896 24-505): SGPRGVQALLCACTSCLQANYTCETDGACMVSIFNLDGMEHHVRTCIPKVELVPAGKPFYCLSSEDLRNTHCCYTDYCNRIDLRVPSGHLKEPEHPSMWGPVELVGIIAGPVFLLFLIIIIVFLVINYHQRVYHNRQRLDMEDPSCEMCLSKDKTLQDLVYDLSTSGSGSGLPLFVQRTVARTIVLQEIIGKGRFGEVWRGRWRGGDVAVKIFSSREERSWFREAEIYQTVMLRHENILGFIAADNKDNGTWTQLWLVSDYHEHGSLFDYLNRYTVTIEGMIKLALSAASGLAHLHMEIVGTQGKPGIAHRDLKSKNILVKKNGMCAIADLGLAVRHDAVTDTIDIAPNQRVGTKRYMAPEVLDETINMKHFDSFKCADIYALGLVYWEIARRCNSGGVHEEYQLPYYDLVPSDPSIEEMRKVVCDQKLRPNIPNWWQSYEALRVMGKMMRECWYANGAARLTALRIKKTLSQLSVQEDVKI
Method: as §1, §2, §3, §4, §5

[7] = biological target: EGFR-T790M/L858R (Homo sapiens, UniProt P00533, L858R/T790M); assay: SelectScreen kinase profiling, EGFR-T790M/L858R; assay type: biochemical; conditions: mean ± SD of one measurement in duplicates
Method: as §1, §2, §3, §4, §5

[8] = biological target: FGR (Homo sapiens, UniProt P09769); assay: SelectScreen kinase profiling, FGR; assay type: biochemical; conditions: mean ± SD of one measurement in duplicates
FGR, sequence (P09769 whole entry): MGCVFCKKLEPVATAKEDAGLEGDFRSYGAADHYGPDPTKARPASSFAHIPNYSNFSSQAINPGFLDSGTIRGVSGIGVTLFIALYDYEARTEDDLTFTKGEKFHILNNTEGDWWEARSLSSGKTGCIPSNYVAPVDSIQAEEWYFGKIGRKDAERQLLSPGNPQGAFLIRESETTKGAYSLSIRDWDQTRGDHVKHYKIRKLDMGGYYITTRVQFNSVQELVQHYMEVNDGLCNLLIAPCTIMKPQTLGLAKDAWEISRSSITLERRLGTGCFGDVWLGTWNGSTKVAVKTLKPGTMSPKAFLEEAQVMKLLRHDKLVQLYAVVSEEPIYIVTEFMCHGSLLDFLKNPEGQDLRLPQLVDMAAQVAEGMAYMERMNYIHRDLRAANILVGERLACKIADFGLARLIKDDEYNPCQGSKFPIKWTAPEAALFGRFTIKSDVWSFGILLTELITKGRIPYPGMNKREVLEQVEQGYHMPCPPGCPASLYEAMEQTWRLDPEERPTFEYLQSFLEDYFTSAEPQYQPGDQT
Method: as §1, §2, §3, §4, §5

[9] = biological target: ABL1-E255K (Homo sapiens, UniProt P00519, E255K); assay: SelectScreen kinase profiling, ABL1-E255K; assay type: biochemical; conditions: mean ± SD of one measurement in duplicates
Method: as §1, §2, §3, §4, §5

[10] = biological target: ABL1-wt (Homo sapiens, UniProt P00519); assay: SelectScreen kinase profiling, ABL1-wt; assay type: biochemical; conditions: mean ± SD of one measurement in duplicates
Method: as §1, §2, §3, §4, §5

[11] = biological target: SRC (Homo sapiens, UniProt P12931); assay: SelectScreen kinase profiling, SRC; assay type: biochemical; conditions: mean ± SD of one measurement in duplicates
SRC, sequence (P12931 whole entry): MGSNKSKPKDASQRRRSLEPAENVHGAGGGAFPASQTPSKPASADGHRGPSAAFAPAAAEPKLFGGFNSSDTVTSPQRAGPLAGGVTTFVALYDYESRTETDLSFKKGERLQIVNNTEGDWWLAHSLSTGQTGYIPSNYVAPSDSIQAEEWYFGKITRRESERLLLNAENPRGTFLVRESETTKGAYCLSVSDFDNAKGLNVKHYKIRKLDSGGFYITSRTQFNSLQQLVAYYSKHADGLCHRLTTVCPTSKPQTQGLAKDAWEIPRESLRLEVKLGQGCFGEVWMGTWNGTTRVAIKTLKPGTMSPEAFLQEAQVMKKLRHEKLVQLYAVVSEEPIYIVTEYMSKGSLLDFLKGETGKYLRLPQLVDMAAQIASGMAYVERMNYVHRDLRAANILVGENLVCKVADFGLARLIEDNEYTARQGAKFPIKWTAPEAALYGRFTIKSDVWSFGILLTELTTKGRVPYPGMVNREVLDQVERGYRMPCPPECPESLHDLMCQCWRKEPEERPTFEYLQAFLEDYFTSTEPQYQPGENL
Method: as §1, §2, §3, §4, §5

[12] = biological target: EPHB2 (Homo sapiens, UniProt P29323); assay: SelectScreen kinase profiling, EPHB2; assay type: biochemical; conditions: mean ± SD of one measurement in duplicates
EPHB2, sequence (P29323 19-1055): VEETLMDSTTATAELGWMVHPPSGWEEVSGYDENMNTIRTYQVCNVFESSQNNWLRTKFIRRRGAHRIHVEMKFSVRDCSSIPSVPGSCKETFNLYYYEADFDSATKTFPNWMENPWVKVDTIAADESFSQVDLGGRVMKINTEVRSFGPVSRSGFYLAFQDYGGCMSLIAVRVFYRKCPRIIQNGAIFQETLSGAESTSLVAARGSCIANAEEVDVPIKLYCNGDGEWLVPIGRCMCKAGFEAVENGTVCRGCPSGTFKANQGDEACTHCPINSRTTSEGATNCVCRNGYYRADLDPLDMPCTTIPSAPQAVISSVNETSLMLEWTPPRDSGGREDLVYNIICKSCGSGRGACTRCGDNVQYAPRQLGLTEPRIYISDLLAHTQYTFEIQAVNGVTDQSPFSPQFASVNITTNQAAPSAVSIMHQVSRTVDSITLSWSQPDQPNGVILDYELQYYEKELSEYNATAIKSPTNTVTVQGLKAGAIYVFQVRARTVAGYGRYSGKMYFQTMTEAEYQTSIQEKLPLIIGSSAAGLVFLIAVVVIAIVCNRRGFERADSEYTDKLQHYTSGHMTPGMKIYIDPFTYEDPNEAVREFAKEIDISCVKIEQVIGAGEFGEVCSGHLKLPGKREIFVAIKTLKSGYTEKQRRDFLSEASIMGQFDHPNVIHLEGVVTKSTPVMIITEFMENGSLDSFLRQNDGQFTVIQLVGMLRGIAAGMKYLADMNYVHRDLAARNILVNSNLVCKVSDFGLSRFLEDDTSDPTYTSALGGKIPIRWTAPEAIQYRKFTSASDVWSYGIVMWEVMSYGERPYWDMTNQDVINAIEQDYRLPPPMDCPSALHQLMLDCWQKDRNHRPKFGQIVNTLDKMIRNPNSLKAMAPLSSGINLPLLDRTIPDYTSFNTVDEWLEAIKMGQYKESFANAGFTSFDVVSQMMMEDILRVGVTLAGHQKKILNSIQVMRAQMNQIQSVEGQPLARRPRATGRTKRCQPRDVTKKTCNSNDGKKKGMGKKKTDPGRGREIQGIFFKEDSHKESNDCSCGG
Method: as §1, §2, §3, §4, §5

[13] = biological target: BTK (Homo sapiens, UniProt Q06187); assay: SelectScreen kinase profiling, BTK; assay type: biochemical; conditions: mean ± SD of one measurement in duplicates
BTK, sequence (Q06187 whole entry): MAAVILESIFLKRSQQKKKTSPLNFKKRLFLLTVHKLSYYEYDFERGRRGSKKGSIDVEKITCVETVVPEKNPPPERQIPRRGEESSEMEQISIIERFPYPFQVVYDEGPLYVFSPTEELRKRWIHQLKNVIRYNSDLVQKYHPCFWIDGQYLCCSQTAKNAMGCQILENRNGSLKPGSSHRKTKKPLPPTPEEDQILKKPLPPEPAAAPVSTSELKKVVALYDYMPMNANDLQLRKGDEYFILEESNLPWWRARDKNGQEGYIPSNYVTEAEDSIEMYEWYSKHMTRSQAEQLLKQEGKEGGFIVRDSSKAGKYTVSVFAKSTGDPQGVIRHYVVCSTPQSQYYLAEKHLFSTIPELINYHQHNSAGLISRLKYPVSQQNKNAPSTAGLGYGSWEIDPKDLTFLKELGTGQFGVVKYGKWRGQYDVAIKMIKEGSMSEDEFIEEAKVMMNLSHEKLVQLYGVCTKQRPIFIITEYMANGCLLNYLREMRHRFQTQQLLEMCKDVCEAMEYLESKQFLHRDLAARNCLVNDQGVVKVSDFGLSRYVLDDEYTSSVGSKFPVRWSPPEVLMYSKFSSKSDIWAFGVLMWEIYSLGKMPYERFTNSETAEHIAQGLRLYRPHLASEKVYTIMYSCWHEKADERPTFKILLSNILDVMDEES
Method: as §1, §2, §3, §4, §5

[14] = biological target: YES1 (Homo sapiens, UniProt P07947); assay: SelectScreen kinase profiling, YES1; assay type: biochemical; conditions: mean ± SD of one measurement in duplicates
YES1, sequence (P07947 whole entry): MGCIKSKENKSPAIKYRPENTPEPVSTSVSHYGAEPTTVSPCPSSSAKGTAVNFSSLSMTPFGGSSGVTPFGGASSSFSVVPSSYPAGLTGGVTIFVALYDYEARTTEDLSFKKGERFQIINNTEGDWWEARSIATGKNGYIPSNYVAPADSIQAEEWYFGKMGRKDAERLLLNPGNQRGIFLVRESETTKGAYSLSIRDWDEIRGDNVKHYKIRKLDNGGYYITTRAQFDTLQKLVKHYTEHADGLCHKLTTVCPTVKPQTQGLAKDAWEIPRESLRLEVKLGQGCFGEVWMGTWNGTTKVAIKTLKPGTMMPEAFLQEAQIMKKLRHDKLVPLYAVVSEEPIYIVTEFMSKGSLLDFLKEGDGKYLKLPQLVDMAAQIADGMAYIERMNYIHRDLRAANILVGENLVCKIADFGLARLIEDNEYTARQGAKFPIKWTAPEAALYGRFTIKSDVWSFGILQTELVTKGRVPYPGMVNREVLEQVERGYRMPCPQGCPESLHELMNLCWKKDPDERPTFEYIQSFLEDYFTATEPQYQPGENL
Method: as §1, §2, §3, §4, §5

EGFR-T790M, sequence (P00533 712-979 T790M limits assumed): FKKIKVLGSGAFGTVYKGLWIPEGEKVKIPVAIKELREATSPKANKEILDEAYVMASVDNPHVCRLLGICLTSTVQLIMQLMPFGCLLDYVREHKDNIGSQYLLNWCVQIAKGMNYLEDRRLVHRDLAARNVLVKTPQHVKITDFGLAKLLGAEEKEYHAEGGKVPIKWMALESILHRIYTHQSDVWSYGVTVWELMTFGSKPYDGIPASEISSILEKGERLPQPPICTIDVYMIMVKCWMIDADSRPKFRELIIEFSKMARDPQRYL

Row | covalent labelling by tandem mass spectrometry [1] | Plasma stability [2] | efflux ratio at 2 h, 5 µM ([3]; Caco-2, pH 7.4, efflux ratio, read-out: Caco-2: ratio (BA) : (AB)) | Papp A→B at 2 h, 5 μM ([3]; Caco-2, apical to basolateral, 5 μM, pH 7.4, 2 hours, read-out: Caco-2: Papp AB) | Papp B→A at 2 h, 5 μM ([3]; Caco-2, basolateral to apical, 5 μM, pH 7.4, 2 hours, read-out: Caco-2: Papp BA) | inhibition at 1 µM [4] | inhibition at 1 µM [5] | inhibition at 1 µM [6] | inhibition at 1 µM [7] | inhibition at 1 µM [8] | inhibition at 1 µM [9] | inhibition at 1 µM [10] | inhibition at 1 µM [11] | inhibition at 1 µM [12] | inhibition at 1 µM [13] | inhibition at 1 µM [14] | Structure (SMILES)
1 | specific single alkylation of Cys797 | 99 %remain and 100 %remain | 3.1 | 1.2 ×10⁻⁶ cm/s | 3.6 ×10⁻⁶ cm/s |  |  |  |  |  |  |  |  |  |  |  | C=CC(=O)Nc1cccc(-c2c(-c3ccc(N4CCN(C)CC4)cc3)[nH]c3ncnc(OCC(C)C)c23)c1 [Compound 19h]
2 |  |  |  |  |  | 94% | 70 ± 2% | 89% | 88 ± 1% | 92 ± 1% | 86% | 89% | 81 ± 1% | 72 ± 3% | 96 ± 1% | 93 ± 1% | C=CC(=O)Nc1cccc(-c2c(-c3ccc(CN4CCN(C)CC4)cc3)[nH]c3ncnc(OC)c23)c1 [Compound 17a]

— PMC6886544
